Assay results from patent US9144595B2, “APLs for treating arthritis” (University of Tennessee Research Foundation, priority 2009, dated 2015).

How the values were obtained:
patients with RA = details: cited from earlier work
[1] = system: splenocytes of DR1 transgenic mice; experiment: Oral APL A12: IFNγ production by cultured splenocytes of DR1 transgenic mice; assay type: in vivo, mouse
[2] = system: Peyer's Patch cells of DR1 TCRtg+/+ mice; experiment: Oral APL A12: IL-17 and IL-10 in cultures of Peyer's Patch cells of DR1 TCRtg+/+ mice; assay type: in vivo, mouse
[3] = system: murine models of oral tolerance; experiment: Murine models of oral tolerance; details: mouse, in vivo
From the text: A form of CII based therapy has been tried in patients with RA and juvenile RA by administering intact native chick or bovine CII to patients. Seven trials of treatment with oral CII have been reported including two of our own. […] Most patients in these studies also received NSAIDs which block oral tolerance and systemic tolerance. The use of NSAIDS might have been responsible for the mixed results of oral CII in RA. […] Furthermore, we have applied these crucial data in designing oral tolerance trials in humans. We can down regulate with oral CII, PBMC production of IFNγ to α1(II) in RA patients who take NSAIDS plus misoprostol and/or DMARDS and anti-TNFα therapies. Oral administration of low dose antigen generates regulatory T cells, which act in the respective microenvironment in a non-antigen specific manner by producing down-regulatory cytokines such as IL4, IL10 and TGFbeta, a Th2/Th3 cytokine pattern.

[4] = system: patients with recent onset of type 1 diabetes mellitus; details: IFNγ and IL-5 ELISPOT, weeks 0-26; cited from earlier work
DR1 Transgenic mice = experiment: Effect of A12 on CIA in DR1 Transgenic mice (CII plus A12; intravenous A12 after CII-immunization); assay type: in vivo, mouse
Protocol: Assuming that CII263-270 was key to developing immunity to the intact CII molecule, a number of analog peptides where amino acids within this small segment were substituted with those found in the corresponding sites of nonarthritogenic type I collagen were prepared and tested. […] The APL A12 developed for this study has the following amino acid sequence: LGPKGQTGEBG[IAGNKGDQGPK]GEBGPA (SEQ ID NO: 3) where B=hydroxproline. The core determinant of human CII263-270 is bracketed. The underlined residues are those substituted to produce APL A12. The residues amino terminal and carboxy terminal to the core determinant is from the normal human CII sequence.

[5] = mice gavaged with 50 μg CII263-270 9 times over 2 weeks, cells cultured with PBS
[6] = mice gavaged with 50 μg CII263-270, cells cultured with APL A12 50 μg/ml
[7] = mice gavaged with 50 μg CII263-270, cells cultured with CII263-270 50 μg/ml
[8] = mice gavaged with PBS, cells cultured with CII263-270 50 μg/ml

[O]QKRAAYDQ[U]YGHAAFE (QKRAAYDQYGHAAFE; Synthetic peptide dnaJP1) [synthetic peptide derived from bacterial heat shock protein]
cytokine profile (patients with RA; CD3+ cells, oral, six months): switch in the cytokine profile from Th1 to Th2 | tolerability (patients with RA; oral 0.25, 2.5 and 25 mg per day for six months): well tolerated and no significant side effects occurred | worsening of arthritis (patients with RA; oral, six months): no worsening of arthritis

FKGEQGPK [CII263-270, reference compound]
IFNγ Levels in Splenocyte Culture ([1]; mice gavaged with 50 μg CII263-270 8 times over 2 weeks, splenocytes cultured with PBS): 68 ± 85 pg/mL | IFNγ Levels in Splenocyte Culture ([1]; mice gavaged with 50 μg CII263-270, splenocytes cultured with APL A12 50 μg/ml): 80 ± 52 pg/mL | IFNγ Levels in Splenocyte Culture ([1]; mice gavaged with 50 μg CII263-270, splenocytes cultured with CII263-270 50 μg/ml): 124 ± 84 pg/mL | IFNγ Levels in Splenocyte Culture ([1]; mice gavaged with PBS, splenocytes cultured with CII263-270 50 μg/ml): 280 ± 222 pg/mL | II-10 Levels in Peyer's Patch Cultures [2, 5]: 15 pg/mL | IL-17 Levels in Peyer's Patch Cultures [2, 5]: 11 pg/mL | II-10 Levels in Peyer's Patch Cultures [2, 6]: 35 pg/mL | IL-17 Levels in Peyer's Patch Cultures [2, 6]: 62 pg/mL | II-10 Levels in Peyer's Patch Cultures [2, 7]: 15 pg/mL | IL-17 Levels in Peyer's Patch Cultures [2, 7]: 256 pg/mL | II-10 Levels in Peyer's Patch Cultures [2, 8]: 45 pg/mL | IL-17 Levels in Peyer's Patch Cultures [2, 8]: 30 pg/mL

etanercept
oral tolerance induction [3]: do not block oral tolerance induction

SHLVEALALVAGERG [NBI-6024]
PBMC ELISPOT responses to B(9-23) epitope and NBI-6024 [4]: induced, predominantly Th2 responses

B1: Ova: control antigen given intravenously in Table I (protein, UniProt P01012 2-386, looked up)
Ovalbumin: GSIGAASMEFCFDVFKELKVHHANENIFYCPIAIMSALAMVYLGAKDSTRTQINKVVRFDKLPGFGDSIEAQCGTSVNVHSSLRDILNQITKPNDVYSFSLASRLYAEERYPILPEYLQCVKELYRGGLEPINFQTAADQARELINSWVESQTNGIIRNVLQPSSVDSQTAMVLVNAIVFKGLWEKAFKDEDTQAMPFRVTEQESKPVQMMYQIGLFRVASMASEKMKILELPFASGTMSMLVLLPDEVSGLEQLESIINFEKLTEWTSSNVMEERKIKVYLPRMKMEEKYNLTSVLMAMGITDVFSSSANLSGISSAESLKISQAVHAAHAEINEAGREVVGSAEAGVDAASVSEEFRADHPFLFCIKHIATNAVLFFGRCVSP
Antibodies to CII (DR1 Transgenic mice; 1 mg total i.v.): 42 ± 10 | Incidence (DR1 Transgenic mice; arthritis incidence, 1 mg total i.v. on days 10, 12, 14 after CII-immunization): 7/10
